Measurements as given in ChEMBL document CHEMBL3352615, “Synthesis and evaluation of ether-linked demethylepipodophyllotoxin dimers” (Bioorg Med Chem Lett, 2014).
The source made the active and inactive calls. The calls are words filed in the database; no cut-off is given here.

Legend:
[1] = biological target: DNA topoisomerase 2-alpha (Homo sapiens) (UniProt P11388); test: Inhibition of human topoisomerase-2 alpha assessed as Escherichia coli pBR322 DNA cleavage at 100 uM after 30 mins by agarose electrophoresis
A549 = test: Cytotoxicity against human A549 cells after 48 hrs by Alamar Blue assay; type: functional, cell-based; conditions: A549, 48 h
L6 = test: Cytotoxicity against rat L6 cells after 71.5 hrs by Presto Blue assay; type: cell-based; conditions: L6, 71.5 h
[2] = Selectivity ratio of IC50 for rat L6 cells to IC50 for human A549 cells; type: ADME, cell-based; conditions: L6 cells and A549 cells, read-out: Ratio IC50

DNA topoisomerase 2-alpha (Homo sapiens), sequence (P11388 whole entry): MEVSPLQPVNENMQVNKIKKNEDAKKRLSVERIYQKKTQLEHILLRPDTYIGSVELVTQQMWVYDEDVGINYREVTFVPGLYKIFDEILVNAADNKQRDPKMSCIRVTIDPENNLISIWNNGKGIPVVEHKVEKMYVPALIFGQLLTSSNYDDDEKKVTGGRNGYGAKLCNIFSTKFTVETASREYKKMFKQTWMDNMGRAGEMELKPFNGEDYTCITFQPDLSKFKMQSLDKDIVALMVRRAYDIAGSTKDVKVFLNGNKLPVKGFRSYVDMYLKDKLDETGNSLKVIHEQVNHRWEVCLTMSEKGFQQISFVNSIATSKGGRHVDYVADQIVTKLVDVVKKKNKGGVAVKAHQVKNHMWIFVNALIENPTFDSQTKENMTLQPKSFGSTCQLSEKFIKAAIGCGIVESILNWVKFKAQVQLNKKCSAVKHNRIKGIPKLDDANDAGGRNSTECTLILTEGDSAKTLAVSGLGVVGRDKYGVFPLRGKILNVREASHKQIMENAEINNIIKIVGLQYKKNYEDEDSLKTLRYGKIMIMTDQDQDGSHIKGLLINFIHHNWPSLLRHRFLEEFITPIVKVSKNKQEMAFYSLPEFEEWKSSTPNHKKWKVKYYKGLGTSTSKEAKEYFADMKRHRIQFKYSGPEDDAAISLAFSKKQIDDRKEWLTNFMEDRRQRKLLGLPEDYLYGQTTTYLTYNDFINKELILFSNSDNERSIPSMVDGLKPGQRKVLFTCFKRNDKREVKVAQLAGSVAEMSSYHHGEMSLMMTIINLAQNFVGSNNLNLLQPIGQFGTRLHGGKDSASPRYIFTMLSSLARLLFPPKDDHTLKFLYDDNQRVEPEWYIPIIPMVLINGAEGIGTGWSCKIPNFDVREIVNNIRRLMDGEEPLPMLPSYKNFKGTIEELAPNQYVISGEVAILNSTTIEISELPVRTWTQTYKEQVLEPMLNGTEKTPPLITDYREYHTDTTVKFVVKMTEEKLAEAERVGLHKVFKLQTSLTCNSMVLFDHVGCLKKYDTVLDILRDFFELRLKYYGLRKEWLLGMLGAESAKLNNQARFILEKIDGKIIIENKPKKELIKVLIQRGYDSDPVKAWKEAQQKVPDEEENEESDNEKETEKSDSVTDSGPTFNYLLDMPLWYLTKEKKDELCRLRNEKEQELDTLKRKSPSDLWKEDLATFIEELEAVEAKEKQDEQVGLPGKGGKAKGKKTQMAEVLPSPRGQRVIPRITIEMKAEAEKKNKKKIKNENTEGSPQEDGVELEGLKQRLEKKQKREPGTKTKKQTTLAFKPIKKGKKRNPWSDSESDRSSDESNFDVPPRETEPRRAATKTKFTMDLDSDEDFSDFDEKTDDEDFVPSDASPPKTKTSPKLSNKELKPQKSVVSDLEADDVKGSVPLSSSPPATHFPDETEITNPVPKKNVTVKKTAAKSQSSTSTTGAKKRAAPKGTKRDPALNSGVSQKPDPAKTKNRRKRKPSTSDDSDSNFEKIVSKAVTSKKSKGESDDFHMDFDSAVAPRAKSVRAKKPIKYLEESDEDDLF

Structure (SMILES) | inhibition [1] | IC50 (A549) [nM] | IC50 (L6) [nM] | selectivity ratio [2]
CCCCO[C@@H]1c2cc3c(cc2[C@@H](c2cc(OC)c(O)c(OC)c2)[C@H]2C(=O)OC[C@@H]21)OCO3 | Active | 2870 | 4620 | 1.6
CCCCCCO[C@@H]1c2cc3c(cc2[C@@H](c2cc(OC)c(O)c(OC)c2)[C@H]2C(=O)OC[C@@H]21)OCO3 | Active | 5970 | 4550 | 0.76
COc1cc([C@@H]2c3cc4c(cc3[C@@H](OCc3ccccc3)[C@H]3COC(=O)[C@H]23)OCO4)cc(OC)c1O | Active | 3860 | 4550 | 1.2
COc1cc([C@@H]2c3cc4c(cc3[C@@H](OCCCCCCO[C@@H]3c5cc6c(cc5[C@@H](c5cc(OC)c(O)c(OC)c5)[C@H]5C(=O)OC[C@@H]53)OCO6)[C@H]3COC(=O)[C@H]23)OCO4)cc(OC)c1O | Active | 120 | 300 | 2.5
COc1cc([C@@H]2c3cc4c(cc3[C@@H](OCCCCO[C@@H]3c5cc6c(cc5[C@@H](c5cc(OC)c(O)c(OC)c5)[C@H]5C(=O)OC[C@@H]53)OCO6)[C@H]3COC(=O)[C@H]23)OCO4)cc(OC)c1O | Active | 70 | 300 | 4.3
COc1cc([C@@H]2c3cc4c(cc3[C@@H](OCc3ccc(CO[C@@H]5c6cc7c(cc6[C@@H](c6cc(OC)c(O)c(OC)c6)[C@H]6C(=O)OC[C@@H]65)OCO7)cc3)[C@H]3COC(=O)[C@H]23)OCO4)cc(OC)c1O | Active | 360 | 600 | 1.7
COc1cc([C@@H]2c3cc4c(cc3[C@@H](O[C@@H]3O[C@@H]5CO[C@@H](C)O[C@H]5[C@H](O)[C@H]3O)[C@H]3COC(=O)[C@H]23)OCO4)cc(OC)c1O [ETOPOSIDE] | Active | 2870 | 19000 | 6.7
